Drawing on US7507730B2, “Substituted pyrazolo[1,5-a]pyrimidines as potassium channel activators” (Bristol-Myers Squibb Company, priority 2005, dated 2009), this text covers inhibition and IC50 for 30 compounds.

Kv1.5, sequence (P22460 whole entry): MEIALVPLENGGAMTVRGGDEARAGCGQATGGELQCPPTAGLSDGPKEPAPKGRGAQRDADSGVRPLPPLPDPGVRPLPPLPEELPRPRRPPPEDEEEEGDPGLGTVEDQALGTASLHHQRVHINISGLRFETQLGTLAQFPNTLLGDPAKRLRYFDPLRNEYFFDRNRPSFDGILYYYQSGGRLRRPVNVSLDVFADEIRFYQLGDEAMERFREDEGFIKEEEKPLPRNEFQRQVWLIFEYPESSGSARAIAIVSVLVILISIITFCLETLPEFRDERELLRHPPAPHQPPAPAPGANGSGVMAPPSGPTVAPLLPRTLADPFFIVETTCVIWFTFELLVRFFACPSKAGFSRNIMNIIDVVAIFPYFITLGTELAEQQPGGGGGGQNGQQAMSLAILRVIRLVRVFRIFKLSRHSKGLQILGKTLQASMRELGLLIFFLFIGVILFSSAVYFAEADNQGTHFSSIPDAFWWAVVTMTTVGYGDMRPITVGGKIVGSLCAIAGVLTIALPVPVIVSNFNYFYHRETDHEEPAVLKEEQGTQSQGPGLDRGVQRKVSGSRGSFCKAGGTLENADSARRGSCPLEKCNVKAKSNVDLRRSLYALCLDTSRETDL

For one experiment, the target named is Kv1.5 (Homo sapiens, UniProt P22460). Briefly: Kv1.5 inhibition assay (IKur inhibitor assay per cited references). The class given is cell-based. As to conditions: at 0.3 μM. The text has this:
Assays to determine the degree of activity of a compound as an IKur inhibitor are well known in the art and are described in references such as J. Gen. Physiol. Apr.; 101 (4):513-43, and Br. J. Pharmacol. 1995 May; 115(2):267-74.
`CC1=C(S(=O)(=O)c2ccccc2)C(c2ccc3c(c2)OCO3)n2nc(C)cc2N1` (racemic) [Example 6, 7-(Benzo[d][1,3]dioxol-5-yl)-2,5-dimethyl-6-(phenylsulfonyl)-4,7-dihydropyrazolo[1,5-a]pyrimidine]: testing at 0.3 µM gave an inhibition of 6.1%.
The same measure, in the same setting: under `CC1=C(S(=O)(=O)C(C)C)C(c2ccc(Cl)c(Cl)c2)n2nc(C)cc2N1` (racemic) [Example 13, 7-(3,4-Dichlorophenyl)-6-(isopropylsulfonyl)-2,5-dimethyl-4,7-dihydropyrazolo[1,5-a]pyrimidine] stands 15.4%; under `CC1=C(S(=O)(=O)Cc2ccccc2)C(c2ccc(Cl)c(Cl)c2)n2nc(C)cc2N1` (racemic) [Example 14, 6-(Benzylsulfonyl)-7-(3,4-dichlorophenyl)-2,5-dimethyl-4,7-dihydropyrazolo[1,5-a]pyrimidine], 50.4%.
For the compound `Cc1cc2nc(C)c(S(=O)(=O)Cc3ccccc3)c(-c3ccc(Cl)c(Cl)c3)n2n1` (racemic) [Example 15, 6-(Benzylsulfonyl)-7-(3,4-dichlorophenyl)-2,5-dimethylpyrazolo[1,5-a]pyrimidine], the inhibition (in general, the drop in the measured response relative to a control, in per cent) at 0.3 µM came out at 8.5%.
In the case of `CC1=C(S(=O)(=O)Cc2ccccc2)C(c2ccc(Cl)c(Cl)c2)n2nc(C(F)(F)F)cc2N1` (racemic) [Example 16, 6-(Benzylsulfonyl)-7-(3,4-dichlorophenyl)-5-methyl-2-(trifluoromethyl)-4,7-dihydropyrazolo[1,5-a]pyrimidine], the inhibition at 0.3 µM worked out at 37.2%.
Regarding `CC1=C(S(=O)(=O)c2ccccc2)C(c2ccc(Cl)s2)n2nc(C(F)(F)F)cc2N1` (racemic) [Example 20, 7-(5-Chlorothiophen-2-yl)-5-methyl-6-(phenylsulfonyl)-2-(trifluoromethyl)-4,7-dihydropyrazolo[1,5-a]pyrimidine], the inhibition at 0.3 µM amounted to 7.8%.
Same read-out and setting: under `CC1=C(S(=O)(=O)c2ccccc2)C(c2ccc(N3CCCC3)cc2)n2nc(C(F)(F)F)cc2N1` (racemic) [Example 21, 5-Methyl-6-(phenylsulfonyl)-7-(4-(pyrrolidin-1-yl)phenyl)-2-(trifluoromethyl)-4,7-dihydropyrazolo[1,5-a]pyrimidine] stands 11.1%.
With `CC1=C(S(=O)(=O)c2ccccc2)C(c2ccc(F)c(C)c2)n2nc(C(F)(F)F)cc2N1` (racemic) [Example 22, 7-(4-Fluoro-3-methylphenyl)-5-methyl-6-(phenylsulfonyl)-2-(trifluoromethyl)-4,7-dihydropyrazolo[1,5-a]pyrimidine], the inhibition at 0.3 µM amounted to 30.7%.
`CC1=C(S(=O)(=O)c2ccc(Cl)cc2)C(c2ccc(C)cc2)n2nc(C(F)(F)F)cc2N1` (racemic) [Example 34, 6-(4-Chlorophenylsulfonyl)-5-methyl-7-p-tolyl-2-(trifluoromethyl)-4,7-dihydropyrazolo[1,5-a]pyrimidine]: at 0.3 µM the inhibition was 37.6%.
Consider `COc1ccc(NS(=O)(=O)C2=C(C)Nc3cc(C)nn3C2c2ccc(Cl)c(Cl)c2)cc1` (racemic) [Example 37, 7-(3,4-Dichlorophenyl)-N-(4-methoxyphenyl)-2,5-dimethyl-4,7-dihydropyrazolo[1,5-a]pyrimidine-6-sulfonamide], for which testing at 0.3 µM gave an inhibition of 25%.
In the case of `COc1ccc(S(=O)(=O)C2=C(CO)Nc3cc(C(F)(F)F)nn3C2c2ccc(Cl)c(Cl)c2)cc1` (racemic) [Example 48, (7-(3,4-Dichlorophenyl)-6-(4-methoxyphenylsulfonyl)-2-(trifluoromethyl)-4,7-dihydropyrazolo[1,5-a]pyrimidin-5-yl)methanol], the inhibition at 0.3 µM is 15%.
`CC1=C(S(=O)(=O)NC2CCCCC2)C(c2ccc(Cl)cc2)n2nc(C(F)(F)F)cc2N1` (racemic) [Example 52, 7-(4-Chlorophenyl)-N-cyclohexyl-5-methyl-2-(trifluoromethyl)-4,7-dihydropyrazolo[1,5-a]pyrimidine-6-sulfonamide] yielded an inhibition at 0.3 µM of 49.6%.
The same measure, in the same setting: next, `CC1=C(S(=O)(=O)NCc2ccccc2)C(c2ccc(Cl)cc2)n2nc(C(F)(F)F)cc2N1` (racemic) [Example 54, N-Benzyl-7-(4-chlorophenyl)-5-methyl-2-(trifluoromethyl)-4,7-dihydropyrazolo[1,5-a]pyrimidine-6-sulfonamide]: 27.7%; `CC1=C(S(=O)(=O)NC(C)(C)C)C(c2ccc(Cl)cc2)n2nc(C(F)(F)F)cc2N1` (racemic) [Example 57, N-tert-Butyl-7-(4-chlorophenyl)-5-methyl-2-(trifluoromethyl)-4,7-dihydropyrazolo[1,5-a]pyrimidine-6-sulfonamide]: 34.1%.
Compound `CC1=C(S(=O)(=O)N(C)c2ccccc2)C(c2ccc(Cl)c(Cl)c2)n2nc(C)cc2N1` (racemic) [Example 60, 7-(3,4-Dichlorophenyl)-N,2,5-trimethyl-N-phenyl-4,7-dihydropyrazolo[1,5-a]pyrimidine-6-sulfonamide] gave an inhibition at 0.3 µM of 83.2%.
In turn, `Cc1nc2cc(C(F)(F)F)nn2c(-c2ccc(Cl)c(Cl)c2)c1S(=O)(=O)N(C)c1ccccc1` (racemic) [Example 62, 7-(3,4-Dichlorophenyl)-N,5-dimethyl-N-phenyl-2-(trifluoromethyl)pyrazolo[1,5-a]pyrimidine-6-sulfonamide] had an inhibition at 0.3 µM of 12%.
As for `CC1=C(S(=O)(=O)N2CCCC2)C(c2ccc(Cl)c(Cl)c2)n2nc(C)nc2N1` (racemic) [Example 68, 7-(3,4-Dichlorophenyl)-2,5-dimethyl-6-(pyrrolidin-1-ylsulfonyl)-4,7-dihydro-[1,2,4]triazolo[1,5-a]pyrimidine], 0.3 µM produced 7% inhibition.
As to `CC1=C(S(=O)(=O)N2CCN(c3ccccc3)CC2)C(c2ccc(Cl)c(Cl)c2)n2nc(C(F)(F)F)cc2N1` (racemic) [Example 70, 7-(3,4-Dichlorophenyl)-5-methyl-6-(4-phenylpiperazin-1-ylsulfonyl)-2-(trifluoromethyl)-4,7-dihydropyrazolo[1,5-a]pyrimidine], 0.3 µM produced 26% inhibition.
In turn, `CC1=C(S(=O)(=O)N2CCCC2)C(c2cc3ccccc3n2C)n2nc(C(F)(F)F)cc2N1` (racemic) [Example 71, 5-Methyl-7-(1-methyl-1H-indol-2-yl)-6-(pyrrolidin-1-ylsulfonyl)-2-(trifluoromethyl)-4,7-dihydropyrazolo[1,5-a]pyrimidine] returned an inhibition at 0.3 µM of 41%.
Compound `CC1=C(S(=O)(=O)c2ccc(Cl)cc2)C(c2cc3ccccc3n2C)n2nc(C(F)(F)F)cc2N1` (racemic) [Example 72, 6-(4-Chlorophenylsulfonyl)-5-methyl-7-(1-methyl-1H-indol-2-yl)-2-(trifluoromethyl)-4,7-dihydropyrazolo[1,5-a]pyrimidine] came in with an inhibition at 0.3 µM of 34%.
`COc1ccc(S(=O)(=O)N(C)C(=O)C2=C(C)Nc3ccnn3C2c2ccc(Cl)c(Cl)c2)cc1` (racemic) [Example 73, 7-(3,4-Dichlorophenyl)-N-(4-methoxyphenylsulfonyl)-N,5-dimethyl-4,7-dihydropyrazolo[1,5-a]pyrimidine-6-carboxamide]: the inhibition at 0.3 µM was found to be 86%.
The compound `CC1=C(C(=O)N(C)S(=O)(=O)c2ccccc2)C(c2ccc(Cl)c(Cl)c2)n2nccc2N1` (racemic) [Example 74, 7-(3,4-Dichlorophenyl)-N,5-dimethyl-N-(phenylsulfonyl)-4,7-dihydropyrazolo[1,5-a]pyrimidine-6-carboxamide] registered an inhibition at 0.3 µM of 79%.
As to `CC1=C(C(=O)N(C)S(=O)(=O)c2ccc(Cl)cc2)C(c2ccc(Cl)c(Cl)c2)n2nccc2N1` (racemic) [Example 75, N-(4-Chlorophenylsulfonyl)-7-(3,4-dichlorophenyl)-N,5-dimethyl-4,7-dihydropyrazolo[1,5-a]pyrimidine-6-carboxamide], the inhibition at 0.3 µM was 89%.
`CC1=C(C(=O)N(C)S(=O)(=O)c2ccc3ccc(Cl)cc3c2)C(c2ccc(Cl)c(Cl)c2)n2nccc2N1` (racemic) [Example 76, N-(7-Chloronaphthalen-2-ylsulfonyl)-7-(3,4-dichlorophenyl)-N,5-dimethyl-4,7-dihydropyrazolo[1,5-a]pyrimidine-6-carboxamide] yielded an inhibition at 0.3 µM of 38%.
On the same count and under the same terms, next, `CC1=C(C(=O)N(C)S(=O)(=O)c2ccc(F)cc2)C(c2ccc(Cl)c(Cl)c2)n2nc(C(F)(F)F)cc2N1` (racemic) [Example 82, 7-(3,4-Dichlorophenyl)-N-(4-fluorophenylsulfonyl)-N,5-dimethyl-2-(trifluoromethyl)-4,7-dihydropyrazolo[1,5-a]pyrimidine-6-carboxamide]: 7%.
With `CC1=C(C(=O)N2CCN(C)S2(=O)=O)C(c2ccc(Cl)c(Cl)c2)n2nc(C)cc2N1` (racemic) [Example 83], the inhibition at 0.3 µM was determined as 40%.
`CCCCS(=O)(=O)NC(=O)C1=C(C)Nc2cc(C(F)(F)F)nn2C1c1ccc(Cl)c(Cl)c1` (racemic) [Example 85, N-(Butylsulfonyl)-7-(3,4-dichlorophenyl)-5-methyl-2-(trifluoromethyl)-4,7-dihydropyrazolo[1,5-a]pyrimidine-6-carboxamide]: at 0.3 µM the inhibition was 11%.

The experiment is the same for the next values; noted with them: given as % inhibition, value given as a concentration in μM; read-out: Kv1.5% inhibition.
Consider `COc1ccc(S(=O)(=O)N(C)C(=O)C2=C(C)Nc3cc(C)nn3C2c2ccc(Cl)c(Cl)c2)cc1` (racemic) [Example 77, 7-(3,4-Dichlorophenyl)-N-(4-methoxyphenylsulfonyl)-N,2,5-trimethyl-4,7-dihydropyrazolo[1,5-a]pyrimidine-6-carboxamide], for which the IC50 came out at 0.172 µM.
In the case of `CC1=C(C(=O)N(C)S(=O)(=O)c2ccccc2)C(c2ccc(Cl)c(Cl)c2)n2nc(C)cc2N1` (racemic) [Example 78, 7-(3,4-Dichlorophenyl)-N,2,5-trimethyl-N-(phenylsulfonyl)-4,7-dihydropyrazolo[1,5-a]pyrimidine-6-carboxamide], the IC50 was found to be 0.164 µM.

The same experiment, now with this note: read-out: Kv1.5 IC50.
`CCCCS(=O)(=O)N(C)C(=O)C1=C(C)Nc2cc(C(F)(F)F)nn2C1c1ccc(Cl)c(Cl)c1` (racemic) [Example 86, N-(Butylsulfonyl)-7-(3,4-dichlorophenyl)-N,5-dimethyl-2-(trifluoromethyl)-4,7-dihydropyrazolo[1,5-a]pyrimidine-6-carboxamide]: the IC50 was found to be 0.242 µM.
